The record followed here is paper PMC11852804, “Conformational flexibility is a critical factor in designing broad-spectrum human norovirus protease inhibitors” (Journal of Virology, 2025).

In assay [1] the test system is T1, GII.4-Pro HOV.
T1 construct: mature protease cut from ORF1 polyprotein; pET-46b(+) His-tag with thrombin site, E. coli XJb(DE3); tag cut with thrombin when used
As to the kind of experiment: FRET protease assay, time-dependent inhibition. The assay is classed as biochemical, Norovirus norwalkense. The conditions noted are these: covalent; GII FRET peptide substrate; pH 8.0, 37 °C, 10 mM DTT; corrected for substrate competition.

In assay [2] the target is T2, GI.1-Pro (Norovirus Hu/1968/US, UniProt Q83883, R1212A).
T2 construct: gene ORF1
It counts as biochemical. Particulars: covalent; tight-binding conditions, kchem approximation; GI.1 FRET peptide substrate; pH 8.0, 37 °C, 10 mM DTT; corrected for substrate competition.

For assay [3], the target named is T3, GII.4-Pro Sydney (Norovirus Hu/GII.4/Sydney/NSW0514/2012/AU, UniProt K4L8Z7, R1120A). The conditions noted are these: read-out: KI. The text has this:
(§1) FRET protease assay, time-dependent inhibition on GII.4-Pro Sydney

The target of assay [4] is T4, GI.1-Pro (Norovirus Hu/1968/US, UniProt Q83883).
T4 construct: gene ORF1; mature protease cut from ORF1 polyprotein; pET-46b(+) His-tag with thrombin site, E. coli XJb(DE3); tag cut with thrombin when used
Description: FRET protease assay, time-dependent inhibition. The assay is classed as biochemical. The text has this: FRET protease assay, time-dependent inhibition on GI.1-Pro

For assay [5], the system named is GII.4-Pro HOV. The source says: FRET protease assay, time-dependent inhibition on GII.4-Pro HOV
Assay [6] has as its target T3, GII.4-Pro Sydney. Description: biochemical. Particulars: read-out: kinact/KI (M^-1s^-1).
Text: as §1

For assay [7], the target named is T5, GII.3-Pro (Norovirus Hu/Texas/TCH04-577/2004/US, UniProt B2DD26).
T5 construct: mature protease cut from ORF1 polyprotein; tag cut with 3C protease when used
As to the kind of experiment: FRET protease assay, time-dependent inhibition. The assay is classed as biochemical. The conditions noted are these: covalent; GII FRET peptide substrate; pH 8.0, 37 °C, 10 mM DTT; corrected for substrate competition.

The target of assay [8] is T6, GII.4-Pro Sydney (Norovirus Hu/GII.4/Sydney/NSW0514/2012/AU, UniProt K4L8Z7).
T6 construct: mature protease cut from ORF1 polyprotein; tag cut with 3C protease when used
Description: FRET protease assay, time-dependent inhibition. The assay is classed as biochemical. The conditions noted are these: covalent; GII FRET peptide substrate; pH 8.0, 37 °C, 10 mM DTT; corrected for substrate competition.

The target in assay [9] is T7, (Norovirus norwalkense, UniProt A9YYE3).
T7 construct: mature protease cut from ORF1 polyprotein; pET-46b(+) His-tag with thrombin site, E. coli XJb(DE3); tag cut with thrombin when used
Description: FRET protease assay, time-dependent inhibition. The assay is classed as biochemical.

Assay [10] has as its target T5, GII.3-Pro. As to the kind of experiment: FRET protease assay, time-dependent inhibition. It counts as biochemical.
Assay [11] has as its target T6, GII.4-Pro Sydney. Description: FRET protease assay, time-dependent inhibition. The assay is classed as biochemical.
Assay [12] addresses GII.3-Pro (Norovirus Hu/Texas/TCH04-577/2004/US, UniProt B2DD26, R1120A). The conditions noted are these: read-out: KI.

Like-named read-outs stand apart in the source and are kept apart here.

As to `CCOC(=O)/C=C/[C@H](C[C@@H]1CCNC1=O)NC(=O)[C@@H](CC(=O)[C@@H](NC(=O)c1cc(C)on1)C(C)C)Cc1ccc(F)cc1` [rupintrivir], the KI (inactivation) in the assay on GII.4-Pro HOV [1] came to 457 ± 52 µM; on GII.4-Pro Sydney [3], 438 ± 299 µM; in the assay with GII.4-Pro HOV [5] (read-out: KI), 564 ± 513 µM; at GII.3-Pro [7], 1310 µM; at GII.4-Pro Sydney [8], 1090 µM; at GII.3-Pro [12] it was 94 ± 38 µM. In addition, the “kinact/KI” value worked out at 233.5 ± 8.8 M⁻¹ s⁻¹ at GI.1-Pro [2]; 294 ± 5.7 M⁻¹ s⁻¹ on GI.1-Pro [4]; 6.52 ± 0.77 M⁻¹ s⁻¹ in the assay with GII.4-Pro HOV [5]; 4.53 ± 0.59 M⁻¹ s⁻¹ on GII.4-Pro Sydney [6]; 5.78 ± 0.21 M⁻¹ s⁻¹ in assay [9]; 5.34 ± 0.52 M⁻¹ s⁻¹ on GII.3-Pro [10]. Moreover, the kinact/KI on GII.4-Pro Sydney [11] is 3.73 ± 0.28 M⁻¹ s⁻¹.
